Entries after “also recorded” stand apart in the source; their conditions may differ.
Experiments:
[1] = system: insects; details: relative to DDT where stated; cited from earlier work
[2] = system: multifunction oxidase (MFO) enzymes; details: cited from earlier work
[3] = system: animals; details: prior art; cited from earlier work
[4] = system: Culex fatigans larvae; assay: Toxicity to Culex mosquito larvae; assay type: in vivo
Procedure: (§1) The compounds of the present invention were tested for insecticidal activity by standard methods, and compared with the insecticidal activities of DDT and symmetrical analogs of DDT, such as methoxychlor. Toxicological methods for the determination of the topical LD50 values to adult female SNAIDM and PSR houseflies, Musca domestica L. and to Phormia regina, and LC50 values to clex pipiens quinquefas ciatus Say, and Anopheles albimanus Weid mosquitoes were described by Metcalf et al., 44 Bull. World Health Org. 363 (1971). The methods for evaluation of metabolism by mouse liver homogenate and by female RSP housefly and salt-marsh caterpillar larvae Estigmene acrea Drury, were described by Metcalf et al., 5 J. Environ. Sci. Tech. 709 (1971).

[5] = system: Musca domestica SNAIDM; assay: Topical toxicity to adult female SNAIDM (susceptible) houseflies, alone and with piperonyl butoxide; assay type: in vivo, Musca domestica L.; details: for SR (synergistic ratio), Musca domestica SNAIDM: LD50 alone / LD50 synergized with piperonyl butoxide; for LD50: Musca domestica, alone; for LD50 / Topical LD50, Musca domestica SNAIDM, pb: SNAIDM strain, topical; for Topical LD50, Musca domestica SNAIDM, pb: synergized with piperonyl butoxide (pb)
Procedure: as §1
(§2) The synergistic ratios or SR values (LD50 alone/ LD50 synergized with piperonyl butoxide) shown in Table II indicate the role of the multifunction oxidase (MFO) in detoxifying the individual compounds. Since piperonyl butoxide serves to block the action of MFO, the synergized LD50 values express the intrinsic toxicity of the compounds. With the detoxifying action of MFO enzymes blocked, the intrinsic toxicity of the compounds can thus be measured.

[6] = system: Musca domestica Rsp; assay: Topical toxicity to adult female Rsp (resistant) houseflies, alone and with piperonyl butoxide; assay type: in vivo, Musca domestica L.; details: for SR (synergistic ratio), Musca domestica Rsp: LD50 alone / LD50 synergized with piperonyl butoxide; for LD50: Musca domestica, alone; for LD50 / Topical LD50, Musca domestica Rsp, pb: Rsp strain, topical; for Topical LD50, Musca domestica Rsp, pb: synergized with piperonyl butoxide (pb)
Procedure: as §1, §2

[7] = system: Anopheles albimanus larvae; assay: Toxicity to Anopheles albimanus mosquito larvae; assay type: in vivo
Procedure: as §1

[8] = system: Phormia regina; assay: Topical toxicity to Phormia regina, alone and with piperonyl butoxide; assay type: in vivo; details: for SR (synergistic ratio), Phormia regina: LD50 alone / LD50 synergized with piperonyl butoxide; for LD50: Phormia regina, alone; for LD50 / Topical LD50, Phormia regina, pb: topical; for Topical LD50, Phormia regina, pb: synergized with piperonyl butoxide (pb); for toxicity to Phormia: in vivo
Procedure: as §1, §2

[9] = system: multifunction oxidase (MFO) enzymes; assay: Biodegradability / metabolism by multifunction oxidase (MFO) enzymes (insects, mice, model ecosystem); assay type: in vitro ADME; details: inferred from SR values
Description: (§3) It has been found from metabolic studies on insects, and mice, using a model ecosystem and the methods described in Kapoor, et al., 18(6) J.Agr., Food Chem. 1145 (1970), Metcalf, et al., J. Environ. Sci. Technol. 709 (1971) and also in the copending application of Metcalf et al., "Insecticidal Biodegradable Analogues of DDT", Ser. No. 147,241, filed May 26, 1971, and having a common assignee with the present application, that certain p,p'-disubstituted α-trichloromethylbenzylphenyl ethers with various substituent groups are readily attacked by multifunction oxidase (MFO) enzymes, and thus are substantially biodegradable.
as §1, with “709 (1971). […]” for “709 (1971).”

[10] = system: mosquito larvae; assay: Toxicity to mosquito larvae (general statement); details: in vivo
Procedure: as §1

[11] = system: insects; assay: General insecticidal activity (house flies, blow fly, mosquitoes and other insects); assay type: in vivo; details: comparison among the 9 ethers of Table II
Description: as §3, §1

[12] = cited from earlier work

Compound	LC50 Culex fatigans larvae [4]	SR (synergistic ratio), Musca domestica SNAIDM [5]	LD50 [5]	Topical LD50, Musca domestica SNAIDM, pb [5]	SR (synergistic ratio), Musca domestica Rsp [6]	LD50 [6]	Topical LD50, Musca domestica Rsp, pb [6]	LC50 Anopheles albimanus larvae [7]	SR (synergistic ratio), Phormia regina [8]	LD50 [8]	Topical LD50, Phormia regina, pb [8]	other results
COc1ccc(C(c2ccc(OC)cc2)C(Cl)(Cl)Cl)cc1 [methoxychlor, 1,1,1-trichloro-,2,2-bis(p-methoxyphenyl)ethane]	–	–	–	–	–	–	–	–	–	–	–	insecticidal activity of prior art compounds [1]: considerably less insecticidal activity than DDT towards other species of insects; biodegradability / attack by MFO enzymes of prior art compounds [2]: readily attacked by MFO enzymes; accumulation in animal tissues [3]: not generally accumulated in animal tissues
COc1ccc(OC(c2ccc(OC)cc2)C(Cl)(Cl)Cl)cc1 (stereo not drawn) [II, α-trichloromethyl-p-methoxybenzyl p-methoxyphenyl ether]	0.51 ppm	22	300 mg/kg	14.0 μg per g	> 8.7	> 500 mg/kg	57.5 μg per g	0.10 ppm	1.5	125 mg/kg	82.5 μg per g	detoxication in susceptible and resistant houseflies [9]: rapid detoxication
Clc1ccc(OC(c2ccc(Cl)cc2)C(Cl)(Cl)Cl)cc1 (stereo not drawn) [I, α-trichloromethyl-p-chlorobenzyl p-chlorophenyl ether]	0.035 ppm	1.0	90 mg/kg	90 μg per g	> 3.6	> 500 mg/kg	180 μg per g	0.014 ppm	–	> 250 mg/kg	> 250 μg per g	toxicity to mosquito larvae [10]: the most toxic
Cc1ccc(C(c2ccc(C)cc2)C(Cl)(Cl)Cl)cc1 [methylchlor, 1,1,1-trichloro-2,2-bis(p-methylphenyl)ethane]	–	–	–	–	–	–	–	–	–	–	–	insecticidal activity of prior art compounds [1]: considerably less insecticidal activity than DDT towards other species of insects
CCOc1ccc(C(Oc2ccc(OC)cc2)C(Cl)(Cl)Cl)cc1 (stereo not shown) [VII]	0.14 ppm	9.0	45 mg/kg	5.0 μg per g	6.4	90 mg/kg	14.0 μg per g	0.034 ppm	1.9	30 mg/kg	16.0 μg per g	intrinsic toxicity / insecticidal effectiveness [11]: highest intrinsic toxicity; toxicity to Phormia [8]: quite toxic to Phormia
Clc1ccc(C(c2ccc(Cl)cc2)C(Cl)Cl)cc1 [DDD, 1,1-dichloro-2,2-bis(p-chlorophenyl)ethane]	–	–	–	–	–	–	–	–	–	–	–	biodegradability / attack by MFO enzymes of prior art compounds [2]: do not function on DDT and its metabolic derivatives DDE and DDD (or TDE)
ClC(Cl)=C(c1ccc(Cl)cc1)c1ccc(Cl)cc1 [DDE, 1,1-dichloro-2,2-bis(p-chlorophenyl) ethylene]	–	–	–	–	–	–	–	–	–	–	–	biodegradability / attack by MFO enzymes of prior art compounds [2]: do not function on DDT and its metabolic derivatives DDE and DDD (or TDE)
CCOc1ccc(C(Oc2ccc(Cl)cc2)C(Cl)(Cl)Cl)cc1 (stereo not drawn) [VI, α-trichloromethyl-p-ethoxybenzyl p-chlorophenyl ether]	0.067 ppm	1.9	18.5 mg/kg	9.5 μg per g	2.5	31 mg/kg	12.5 μg per g	0.044 ppm	1.0	31.2 mg/kg	31.2 μg per g	toxicity to mosquito larvae [10]: only slightly less toxic; housefly LD50 ([5]; comparison among compounds of Table II): lowest LD50 values to the housefly; intrinsic toxicity / insecticidal effectiveness [11]: highest intrinsic toxicity; also recorded: most effective insecticide generally; toxicity to Phormia [8]: only slightly less toxic to Phormia than the p,p'-diethoxy compound IV
COc1ccc(C(Oc2ccc(Cl)cc2)C(Cl)(Cl)Cl)cc1 (stereo not shown) [V]	0.14 ppm	6.3	108 mg/kg	17.0 μg per g	1.6	130 mg/kg	82.5 μg per g	0.038 ppm	1.8	205 mg/kg	115 μg per g	–
CCOc1ccc(C(Oc2ccc(C)cc2)C(Cl)(Cl)Cl)cc1 (stereo not shown) [VIII]	0.18 ppm	3.5	72.5 mg/kg	20.5 μg per g	2.9	65 mg/kg	22.0 μg per g	0.066 ppm	1.5	46.2 mg/kg	30.0 μg per g	–
CCOc1ccc(OC(c2ccc(OCC)cc2)C(Cl)(Cl)Cl)cc1 (stereo not shown) [IV]	0.11 ppm	2.1	27 mg/kg	13.0 μg per g	1.7	42 mg/kg	24.5 μg per g	0.07 ppm	1.0	16.5 mg/kg	16.5 μg per g	intrinsic toxicity / insecticidal effectiveness [11]: highest intrinsic toxicity; toxicity to Phormia [8]: quite toxic to Phormia
Cc1ccc(OC(c2ccc(C)cc2)C(Cl)(Cl)Cl)cc1 (stereo not shown) [III]	0.12 ppm	2.9	265 mg/kg	90 μg per g	> 3	> 500 mg/kg	145 μg per g	0.18 ppm	1.35	135 mg/kg	100 μg per g	–
Clc1ccc(C(c2ccc(Cl)cc2)C(Cl)(Cl)Cl)cc1 [DDT, 1,1, 1 trichloro-2,2-bis(p-chlorophenyl)ethane]	–	–	–	–	–	–	–	–	–	–	–	accumulation in animal tissues [3]: accumulation in the fatty or lipid tissues of animals; lipid solubility [12]: high lipid solubility; water solubility [12]: very low water solubility
CSc1ccc(C(c2ccc(SC)cc2)C(Cl)(Cl)Cl)cc1 [methiochlor, 1,1,1-trichloro-2,2-bis-(p-methiophenyl) ethane]	–	–	–	–	–	–	–	–	–	–	–	insecticidal activity of prior art compounds [1]: considerably less insecticidal activity than DDT towards other species of insects; biodegradability / attack by MFO enzymes of prior art compounds [2]: readily attacked by MFO enzymes
COc1ccc(C(Oc2ccc(C)cc2)C(Cl)(Cl)Cl)cc1 (stereo not shown) [IX]	0.65 ppm	> 13	> 500 mg/kg	39.0 μg per g	> 4	> 500 mg/kg	135 μg per g	> 1.0 ppm	–	> 250 mg/kg	> 250 μg per g	–
